{"source": "patent US9290492B2", "about": "“Solid forms of antibiotics” (Laboratorios Senosiain S.A. de C.V., priority 2011, dated 2016)", "origin": "cited, not measured here"}
{"smiles": "C[C@H]1COc2c(N3CCN(C)CC3)c(F)cc3c(=O)c(C(=O)O)cn1c23", "note": "[Levofloxacin]", "values": [{"measurement": "bioavailability", "setting": "in vivo", "result": 99, "unit": "%"}, {"measurement": "route of excretion", "setting": "in vivo", "result": "via urine"}]}
{"smiles": "COc1c(N2C[C@@H]3CCCN[C@@H]3C2)c(F)cc2c(=O)c(C(=O)O)cn(C3CC3)c12", "note": "[moxifloxacin, Moxifloxacin]", "values": [{"measurement": "route of excretion", "setting": "in vivo", "result": "via the liver"}, {"measurement": "excreted as the unchanged drug (total)", "setting": "of an oral or intravenous dose", "result": "Approximately 45%"}, {"measurement": "excreted as the unchanged drug in feces", "setting": "of an oral or intravenous dose, feces", "result": "~25", "unit": "%"}, {"measurement": "excreted as the unchanged drug in urine", "setting": "of an oral or intravenous dose, urine", "result": "~20", "unit": "%"}]}
